From US20030055065A1, “Tricyclic amide and urea compounds useful for inhibition of G-protein function and for treatment of proliferative diseases” (priority 1993, published 2003)
Several values for one entry are separate records, joined by “and”; a condition that tells them apart may be missing. Equal values may be shown once. Read-outs that look alike come from different tables or passages of the source.

Experiments:
[1] = system: C-f-1 (mouse fibroblast transformed with c-fos oncogene); assay: In vivo anti-tumor study, C-f-1; set-up: species or system athymic nu/nu female mice; concentration or dose not given beside the values; details: s.c. tumor C-f-1, BID
[2] = biological target: T1, geranylgeranyl protein transferase (GGPT) I (Rattus norvegicus, UniProt P53610+Q04631); assay: Inhibition of geranylgeranyl protein transferase I (Ras-CVLL as acceptor); assay type: biochemical; details: for selective for FPT inhibition (over GGPT): FPT versus GGPT; for IC50: enzyme inhibition
T1 construct: were partially purified from rat brain by ammonium sulfate fractionation followed by Q-Sepharose
Procedure, shortened: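 Rat brain GGPT I, partially purified by ammonium sulfate fractionation and anion exchange, was assayed with [3H]geranylgeranyl pyrophosphate as isoprenoid donor. The acceptor was E. coli-expressed His6-tagged val12-Ha-Ras ending in CVLL. The protocol otherwise matched the farnesyl protein transferase assay.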

[3] = system: Normal human HEPM fibroblasts; assay: Cell Mat Assay: density of mat cells (mIC50); assay type: cell-based; details: Homo sapiens, Fibroblast
Procedure, shortened: (§1)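 Serial compound dilutions added 24 h after planting T24-BAG4 cells onto a mat of normal cells, then 14 d colony growth; monolayers glutaraldehyde-fixed and tumor cells X-Gal stained. tIC50 and mIC50 from microscope counts of colonies, cells per colony and mat cell density.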

[4] = system: Ras-CVLS processing in COS monkey kidney cells; assay: COS cell assay: Ras-CVLS processing (Western blot); assay type: cell-based; details: Primates, COS
Procedure, shortened: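 COS cells electroporated with Ras-CVLS (farnesyl transferase substrate) cDNA, with drug-containing fresh medium added at 24 h and cells examined at 48 h. TCA-precipitated cellular protein was resolved by SDS gel and immunoblotted with anti-p21 Ras monoclonal and HRP anti-rat IgG to monitor Ras processing.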

[5] = system: T24-BAG4 human bladder carcinoma cells expressing an activated H-ras gene; assay: Cell Mat Assay: tumor cell colony inhibition (tIC50); assay type: cell-based; details: Homo sapiens, inhibition of tumor cell growth
Procedure, shortened: as §1

[6] = system: SW620 (human colon adenocarcinoma [lymph node metastasis]); assay: In vivo anti-tumor study, SW620; set-up: species or system athymic nu/nu female mice; percent inhibition of tumor growth relative to vehicle controls: concentration or dose not given beside the values; details: for inhibition in vivo at 100 mg/kg: Mus musculus, SW620 tumor, 100 MPK, 10/wk; for percent inhibition of tumor growth relative to vehicle controls: s.c. tumor SW-620, BID
[7] = biological target: T2, farnesyl protein transferase (FPT), partially purified from rat brain (Rattus norvegicus, UniProt Q02293+Q04631); assay: Inhibition of farnesyl protein transferase (transfer of [3H]farnesyl to Ras-CVLS); assay type: biochemical; details: read-out: FPT IC50
T2 construct: were partially purified from rat brain by ammonium sulfate fractionation followed by Q-Sepharose
Procedure, shortened: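 Partially purified farnesyl protein transferase with His6-tagged val12-Ha-Ras-CVLS substrate and [3H]farnesyl pyrophosphate, 30 min at room temperature. Stopped with SDS/TCA, precipitated Ras collected on GF/C filters; percent inhibition relative to DMSO vehicle control.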

[8] = system: M27 (mouse Lewis lung carcinoma); assay: In vivo anti-tumor study, M27; set-up: species or system athymic nu/nu female mice; details: po; for Average % Tumor Inhibition: M27 tumor, 100 MPK, 14/wk, x4; for percent inhibition of tumor growth relative to vehicle controls: s.c. tumor M27, BID, 1-7, ×4
Source text: In vivo Anti-tumor Studies

[9] = system: A431 (human epidermal carcinoma); assay: In vivo anti-tumor study, A431; set-up: species or system athymic nu/nu female mice; concentration or dose not given beside the values; details: s.c. tumor A431, BID, 1-5, ×4
[10] = system: COS monkey kidney cells expressing val12-Ha-Ras-CVLL; assay: COS cell assay: disordered cell growth / morphological changes induced by Ras-CVLL; assay type: cell-based; details: 20 μg/mL
Source text: (§2) 2. Cell-Based Assay: Transient expression of val^12-Ha-Ras-CVLS and val^12-Ha-Ras-CVLL in COS monkey kidney cells: Effect of farnesyl protein transferase inhibitors on Ras processing and on disordered cell growth induced by transforming Ras.
(§3) COS monkey kidney cells were transfected by electroporation with the plasmid pSV-SPORT (Gibco/BRL) containing a cDNA insert encoding either Ras-CVLS or Ras-CVLL, leading to transient overexpression of a Ras substrate for either farnesyl protein transferase or geranylgeranyl protein transferase I, respectively (see above).
(§4) Following electroporation, cells were plated into 6-well tissue culture dishes containing 1.5 ml of Dulbecco's-modified Eagle's media (GIBCO, Inc.) supplemented with 10% fetal calf serum and the appropriate farnesyl protein transferase inhibitors. After 24 hours, media was removed and fresh media containing the appropriate drugs was re-added.
(§5) 48 hours after electroporation cells were examined under the microscope to monitor disordered cell growth induced by transforming Ras. Cells expressing transforming Ras become more rounded and refractile and overgrow the monolayer, reminiscent of the transformed phenotype. […]

[11] = system: COS monkey kidney cells expressing val12-Ha-Ras-CVLS; assay: COS cell assay: disordered cell growth / morphological changes induced by Ras-CVLS; assay type: cell-based
Source text: as §2, §3, §4, §5

[12] = system: Ras-CVLL processing in COS monkey kidney cells; assay: COS cell assay: Ras-CVLL processing (geranylgeranylation); assay type: cell-based; details: concentrations up to 20 μg/mL
Source text: as §2
as §3, with “above). […]” for “above).”
Membranes were blocked by incubation overnight at 4° C. in PBS containing 2.5% dried milk and 0.5% Tween-20 and then incubated with a Ras-specific monoclonal antibody, Y13-259 (Furth, M. E., et al., (1982), Monoclonal antibodies to the p21 products of the transforming gene of Harvey murine sarcome virus and of the cellular ras gene family, J. Virol. 43: 294-304), in PBS containing 1% fetal calf serum for one hour at room temperature. […] The presence of processed and unprocessed Ras-CVLS or Ras-CVLL was detected using a colorimetric peroxidase reagent (4-chloro-1-naphthol) as described by the manufacturer (Bio-Rad).

[13] = COS cells, read-out: Inhibition of Ras Processing IC50
[14] = Ras-CVLS farnesylation, partially purified rat brain FPT

T1 sequence (P53610 whole entry, one chain of several): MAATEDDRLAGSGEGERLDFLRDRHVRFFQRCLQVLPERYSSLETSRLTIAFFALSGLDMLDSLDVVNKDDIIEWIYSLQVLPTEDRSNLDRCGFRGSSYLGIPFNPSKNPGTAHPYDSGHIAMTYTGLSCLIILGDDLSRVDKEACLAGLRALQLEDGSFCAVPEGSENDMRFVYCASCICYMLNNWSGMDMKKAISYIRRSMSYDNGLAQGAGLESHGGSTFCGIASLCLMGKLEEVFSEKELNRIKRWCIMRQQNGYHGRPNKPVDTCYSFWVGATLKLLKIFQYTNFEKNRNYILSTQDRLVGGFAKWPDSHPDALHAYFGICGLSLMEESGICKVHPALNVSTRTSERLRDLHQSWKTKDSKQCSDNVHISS
T2 sequence (Q02293 whole entry, one chain of several): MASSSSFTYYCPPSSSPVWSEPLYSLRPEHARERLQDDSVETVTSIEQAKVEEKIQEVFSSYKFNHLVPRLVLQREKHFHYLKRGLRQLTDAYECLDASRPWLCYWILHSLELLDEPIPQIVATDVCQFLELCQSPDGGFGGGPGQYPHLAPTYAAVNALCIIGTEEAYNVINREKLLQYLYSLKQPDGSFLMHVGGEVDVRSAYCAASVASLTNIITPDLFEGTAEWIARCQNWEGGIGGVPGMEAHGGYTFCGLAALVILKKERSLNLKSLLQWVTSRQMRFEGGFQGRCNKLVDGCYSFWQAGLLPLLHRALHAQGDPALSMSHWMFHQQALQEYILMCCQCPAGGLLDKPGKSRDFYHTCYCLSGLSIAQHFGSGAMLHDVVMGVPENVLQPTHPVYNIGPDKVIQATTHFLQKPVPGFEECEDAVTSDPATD

SMILES | percent inhibition of tumor growth relative to vehicle controls ([1]; ip, 1-5, ×2) [%] | percent inhibition of tumor growth relative to vehicle controls ([1]; po, 1-5, ×4) [%] | selective for FPT inhibition (over GGPT) [2] | IC50 [2] [µM] | IC50 [3] [µM] | IC50 [4, 13] [µM] | IC50 [5] [µM] | inhibition in vivo at 100 mg/kg ([6]; SW-620, po, po, x2) [%] | inhibition in vivo at 100 mg/kg ([6]; SW-620, po, po, x4) [%] | percent inhibition of tumor growth relative to vehicle controls ([6]; ip, 1-5, ×4) [%] | percent inhibition of tumor growth relative to vehicle controls ([6]; po, 1-5, ×2) [%] | percent inhibition of tumor growth relative to vehicle controls ([6]; po, 1-5, ×4) [%] | IC50 [7, 14] [µM] | IC50 ([7]; enzyme inhibition) [µM] | Average % Tumor Inhibition [8] [%] | percent inhibition of tumor growth relative to vehicle controls [8] [%] | percent inhibition of tumor growth relative to vehicle controls ([9]; po) | percent inhibition of tumor growth relative to vehicle controls ([9]; ip) [%] | also measured
O=C(Cc1cccnc1)N1CCC(=C2c3ccc(Cl)cc3CCc3cccnc32)CC1 [Example 2, 8-chloro-11-[1-(1-(3-pyridyl)-methylcarbonyl)-4-piperidylidene]-6,11-dihydro-5H-benzo[5,6]cyclohepta[1,2-b]-pyridine] | 8 | 9.6 | at least 98 fold | > 46 | > 50 | 3.7 | 25 | 0 | 1 | 0 | 46.1 | 33.5 | 0.47 | 0.47 | 45 | 61.2 | 45.6% and 36.5% | – | inhibition at 46 µM ([2]; at 46 μM, Ras-CVLL as isoprenoid acceptor): 25%; inhibition in vivo at 100 mg/kg ([6]; SW-620, ip, ip, x2): 0%
O=C(Cc1ccncc1)N1CCC(=C2c3ccc(Cl)cc3CCc3cccnc32)CC1 [Example 1, 1-(4-pyridylacetyl)-4-(8-chloro-5,6-dihydro-11H-benzo[5,6]cyclohepta[1,2-b]pyridin-11-ylidene)piperidine] | – | – | – | – | – | 1 | 3.1 | – | – | – | – | – | – | – | – | – | – | – | morphological changes induced by Ras-CVLL [10]: did not prevent the morphological changes; IC50 ([4]; Ras-transfected COS cells, read-out: Ras-CVLS processing IC50): 1 µM and 0.44 µg/mL; morphological changes induced by Ras-CVLS ([11]; at 0.2 or 0.5 μg/mL): little effect; morphological changes induced by Ras-CVLS ([11]; concentration range of 2 to 20 μg/mL): inhibited the morphological changes induced by Ras-CVLS in a dose-dependent manner; geranylgeranylation of Ras-CVLL [12]: did not block
O=C(c1ccc(O)cc1)N1CCC(=C2c3ccc(Cl)cc3CCc3cccnc32)CC1 [Example 7] | 39.7 | 39.3 | – | > 45 | 100 | – | 50 | 13 | 0 | 19.6 | 48.6 | 0 | 2.3 | 2.3 | 40 | 58.2 | 29.1% | 0 | –
O=C(CN1C(=O)c2ccccc2C1=O)N1CCC(=C2c3ccc(Cl)cc3CCc3cccnc32)CC1 [Example 3] | 8 | 0 | at least 59 fold | > 39 | > 50 | > 10 | > 50 | – | – | 27 | 15.8 | – | 0.66 | 0.66 | – | 27.3 | – | 0 | inhibition at 39 µM ([2]; at 39 μM, Ras-CVLL as isoprenoid acceptor): 3%
